The values below come from US11959145B2, “Method for identifying interventions that control the translational activity of ribosomal proteins in differential mRNA expression” (priority 2009, dated 2024).

The subject of the assay is CYH2-PTC-FF reporter. Briefly: dual luciferase (Firefly/Renilla) CYH2-PTC reporter assay. Type of assay: cell-based, yeast. The source says:
FIG. 1: Schematic representation of comparative dual luciferase PTC assay as employed here. Firefly (FF) and Renilla (R) in wild type (WT) yeast cells are compared with luminescence counts of a PTC-FF reporter (e.g. the CYH2-PTC-FF reporter) in wild type yeast cells, wherein a PTC reduces the FF protein and thus luminescence.
FIG. 3: Gene dosage of ribosomal proteins modulates level of protein expression from PTC mRNAs. […] In FIG. 3B, a modulation of the expression of the FF/FF(PTC) reporter in selected ribosomal protein deletion strains is shown. In FIG. 3C, a modulation of expression of the LAMB3-FF/LAMB3(PTC)-FF reporter in selected ribosomal protein deletion strains is shown.
The yeast CYH2 was amplified from the genomic yeast DNA with the primers LG 751 and LG 752. The ATG of the CYH2 was left out to be in frame with the promoter and the firefly luciferase reporter. The 1.0 kb PCR product and pLBK 162 were digested with KpnI and SacI. The CYH2-PTC reporter was ligated in pLBK 162, thus generating pLBK 165 (FIG. 5f). […]
The reporter plasmids are to be transformed in the WT and ribosomal protein deletion strains. […] For testing the different levels of read-through a PTC containing reporter plasmid (e.g. pLBK 165) and for internal standard pLBK 164 are used. […]
A general note: Reporter assays use an easily measured gene product as a stand-in for the process of interest.

“Also recorded” adds a separate entry of the source.

Turning to gentamycin, the “expression level of the CYH2-PTC-FF reporter” value (RPL10/ΔRPL10 gene dosage reduced yeast strain, gentamycin added) is recorded as “not strong or not present at all; also recorded: does not contribute to alteration”. For the same substance, the “CYH2-PTC-FF level (Firefly signal)” value (WT yeast strain (BY4743), gentamycin added as control) is “the signal increases; also recorded: induce an increase”.
